{"source": "PubChem BioAssay (NCI)", "experiment_in_all_cases": "inhibition of tumour cell growth, NCI panel, 48 h", "key": {"DU-145 prostate": {"tested_on": "DU-145 prostate"}, "OVCAR-4 ovarian": {"tested_on": "OVCAR-4 ovarian"}, "A498 renal": {"tested_on": "A498 renal"}, "SF-539 CNS": {"tested_on": "SF-539 CNS"}, "MOLT-4 leukemia": {"tested_on": "MOLT-4 leukemia"}, "HS 578T breast": {"tested_on": "HS 578T breast"}, "SK-MEL-5 melanoma": {"tested_on": "SK-MEL-5 melanoma"}, "SK-OV-3 ovarian": {"tested_on": "SK-OV-3 ovarian"}, "UO-31 renal": {"tested_on": "UO-31 renal"}, "T-47D breast": {"tested_on": "T-47D breast"}, "EKVX NSCLC": {"tested_on": "EKVX NSCLC"}, "KM12 colon": {"tested_on": "KM12 colon"}, "M14 melanoma": {"tested_on": "M14 melanoma"}, "CAKI-1 renal": {"tested_on": "CAKI-1 renal"}, "HL-60(TB) leukemia": {"tested_on": "HL-60(TB) leukemia"}, "CCRF-CEM leukemia": {"tested_on": "CCRF-CEM leukemia"}, "NCI-H522 lung": {"tested_on": "NCI-H522 lung"}, "NCI-H460 lung": {"tested_on": "NCI-H460 lung"}, "HOP-62 NSCLC": {"tested_on": "HOP-62 NSCLC"}, "MDA-MB-231 breast": {"tested_on": "MDA-MB-231 breast"}, "MDA-MB-435": {"tested_on": "MDA-MB-435"}, "RPMI-8226 leukemia": {"tested_on": "RPMI-8226 leukemia"}, "COLO 205 colon": {"tested_on": "COLO 205 colon"}, "NCI-H226 lung": {"tested_on": "NCI-H226 lung"}, "HCC-2998 colon": {"tested_on": "HCC-2998 colon"}, "SNB-19 CNS": {"tested_on": "SNB-19 CNS"}, "OVCAR-5 ovarian": {"tested_on": "OVCAR-5 ovarian"}, "NCI/ADR-RES ovarian": {"tested_on": "NCI/ADR-RES ovarian"}}, "note": "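Tested at 5 concentrations; 48 h exposure; 96-well plates; endpoints linearly interpolated, else capped at highest concentration. The concentration for 50% growth inhibition is given as GI50. At the TGI there is no net growth.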", "data": [{"smiles": "CC1(C)CCC2(CC1)N[C@@H](C(=O)N[C@@H]1CC[C@@H](C(N)=O)OC1)[C@H](c1ccnc(Cl)c1F)[C@]21C(=O)Nc2cc(Cl)ccc21", "values": [{"measurement": "GI50", "setting": "DU-145 prostate", "result": 3.94, "unit": "µM"}, {"measurement": "TGI", "setting": "DU-145 prostate", "result": 16.1, "unit": "µM"}, {"measurement": "GI50", "setting": "OVCAR-4 ovarian", "result": 3.19, "unit": "µM"}, {"measurement": "TGI", "setting": "OVCAR-4 ovarian", "result": 14.1, "unit": "µM"}, {"measurement": "GI50", "setting": "A498 renal", "result": 0.111, "unit": "µM"}, {"measurement": "TGI", "setting": "A498 renal", "result": 3.95, "unit": "µM"}, {"measurement": "GI50", "setting": "SF-539 CNS", "result": 1.93, "unit": "µM"}, {"measurement": "TGI", "setting": "SF-539 CNS", "result": 4.66, "unit": "µM"}, {"measurement": "GI50", "setting": "MOLT-4 leukemia", "result": 0.107, "unit": "µM"}, {"measurement": "TGI", "setting": "MOLT-4 leukemia", "result": 3.13, "unit": "µM"}, {"measurement": "GI50", "setting": "HS 578T breast", "result": 2.33, "unit": "µM"}, {"measurement": "TGI", "setting": "HS 578T breast", "result": 10.4, "unit": "µM"}, {"measurement": "GI50", "setting": "SK-MEL-5 melanoma", "result": 0.743, "unit": "µM"}, {"measurement": "TGI", "setting": "SK-MEL-5 melanoma", "result": 2.17, "unit": "µM"}, {"measurement": "GI50", "setting": "SK-OV-3 ovarian", "result": 3, "unit": "µM"}, {"measurement": "TGI", "setting": "SK-OV-3 ovarian", "result": 9.27, "unit": "µM"}, {"measurement": "GI50", "setting": "UO-31 renal", "result": 0.261, "unit": "µM"}, {"measurement": "TGI", "setting": "UO-31 renal", "result": 3.04, "unit": "µM"}, {"measurement": "GI50", "setting": "T-47D breast", "result": 2.58, "unit": "µM"}, {"measurement": "TGI", "setting": "T-47D breast", "result": 7.85, "unit": "µM"}, {"measurement": "GI50", "setting": "EKVX NSCLC", "result": 2.38, "unit": "µM"}, {"measurement": "TGI", "setting": "EKVX NSCLC", "result": 7.6, "unit": "µM"}, {"measurement": "GI50", "setting": "KM12 colon", "result": 2.39, "unit": "µM"}, {"measurement": "TGI", "setting": "KM12 colon", "result": 6.23, "unit": "µM"}, {"measurement": "GI50", "setting": "M14 melanoma", "result": 2.14, "unit": "µM"}, {"measurement": "TGI", "setting": "M14 melanoma", "result": 5.63, "unit": "µM"}, {"measurement": "GI50", "setting": "CAKI-1 renal", "result": 0.0622, "unit": "µM"}, {"measurement": "TGI", "setting": "CAKI-1 renal", "result": 4.15, "unit": "µM"}, {"measurement": "GI50", "setting": "HL-60(TB) leukemia", "result": 2.36, "unit": "µM"}, {"measurement": "TGI", "setting": "HL-60(TB) leukemia", "result": 5.59, "unit": "µM"}, {"measurement": "GI50", "setting": "CCRF-CEM leukemia", "result": 3.01, "unit": "µM"}, {"measurement": "TGI", "setting": "CCRF-CEM leukemia", "result": 13.3, "unit": "µM"}, {"measurement": "GI50", "setting": "NCI-H522 lung", "result": 2.01, "unit": "µM"}, {"measurement": "TGI", "setting": "NCI-H522 lung", "result": 4.46, "unit": "µM"}, {"measurement": "GI50", "setting": "NCI-H460 lung", "result": 0.179, "unit": "µM"}, {"measurement": "TGI", "setting": "NCI-H460 lung", "result": 2.05, "unit": "µM"}, {"measurement": "GI50", "setting": "HOP-62 NSCLC", "result": 2.31, "unit": "µM"}, {"measurement": "TGI", "setting": "HOP-62 NSCLC", "result": 7.83, "unit": "µM"}, {"measurement": "GI50", "setting": "MDA-MB-231 breast", "result": 1.92, "unit": "µM"}, {"measurement": "TGI", "setting": "MDA-MB-231 breast", "result": 3.98, "unit": "µM"}, {"measurement": "GI50", "setting": "MDA-MB-435", "result": 2.44, "unit": "µM"}, {"measurement": "TGI", "setting": "MDA-MB-435", "result": 6.22, "unit": "µM"}, {"measurement": "GI50", "setting": "RPMI-8226 leukemia", "result": 2.12, "unit": "µM"}, {"measurement": "TGI", "setting": "RPMI-8226 leukemia", "result": 5.57, "unit": "µM"}, {"measurement": "GI50", "setting": "COLO 205 colon", "result": 2.11, "unit": "µM"}, {"measurement": "TGI", "setting": "COLO 205 colon", "result": 5.39, "unit": "µM"}, {"measurement": "GI50", "setting": "NCI-H226 lung", "result": 0.0935, "unit": "µM"}, {"measurement": "TGI", "setting": "NCI-H226 lung", "result": 0.804, "unit": "µM"}, {"measurement": "GI50", "setting": "HCC-2998 colon", "result": 1.7, "unit": "µM"}, {"measurement": "TGI", "setting": "HCC-2998 colon", "result": 3.21, "unit": "µM"}, {"measurement": "GI50", "setting": "SNB-19 CNS", "result": 3.38, "unit": "µM"}, {"measurement": "TGI", "setting": "SNB-19 CNS", "result": 15.2, "unit": "µM"}, {"measurement": "GI50", "setting": "OVCAR-5 ovarian", "result": 2.15, "unit": "µM"}, {"measurement": "TGI", "setting": "OVCAR-5 ovarian", "result": 5.9, "unit": "µM"}, {"measurement": "GI50", "setting": "NCI/ADR-RES ovarian", "result": 16.3, "unit": "µM"}, {"measurement": "TGI", "setting": "NCI/ADR-RES ovarian", "result": 45.5, "unit": "µM"}]}]}
